Assays:
[1] = Preliminary safety study of oral topical application of RTX in cats with gingival inflammation; assay type: in vivo, cat
From the text: This example provides safety data related to oral topical application of RTX. The primary objective of this study was to determine the initial tolerance of RTX when it is topically administered under anesthesia to the oral cavity of cats as a single treatment.
Four cats were enrolled in this study. Each cat presented with mild to moderate gingival inflammation. The cats were allocated to two treatment groups according to severity of gingival inflammation. Group 1 cats, those with mild cases of gingivitis, were dosed on study Day 0 with a diluted RTX solution (12.5 μg/mL) applied topically to the maxillary and mandibular gingival tissue (buccal and palatal/lingual gingiva). Group 2 cats, those with current or recent historical moderate gingivitis, underwent the same treatment regimen on study Day 0 with the addition of application to the palatal and sublingual tissue.
Total dose of RTX tested per cat (diluted with sterile saline for a total volume of 2 mL) was: 17.5 μg (Group 1 cat), 23.75 μg (Group 1 cat), or 25 μg (Group 2 cats) RTX. One cat (pudding) received 17.5 μg RTX, one cat (Clank) received 23.75 μg RTX, and two cats (Forbes and Bianca) received 25 μg RTX. A single application of RTX was topically applied inside the mouth of each cat. The RTX was applied to the entire mouth.
Cats were anesthetized during treatment administration and for 30 minutes post-dose. Diphenhydramine (2 mg/kg, IM) was given as an anesthetic pre-treatment a minimum of 30 minutes prior to dosing. Induction was then performed using a combination of medetomidine 0.03 mg/kg, ketamine 5 mg/kg and butorphanol 0.2 mg/kg; dose volume 0.1 mL/kg, IM. Following application of a lidocaine hydrochloride spray to the larynx, intubation was performed and anesthesia was maintained using an isofluraneoxygen mixture. Standard anesthetic monitoring of vital signs was performed approximately every 5-10 minutes following dosing and precautions were taken to avoid low body temperature throughout the procedure. Cats remained under anesthesia for 30 minutes following dosing for additional monitoring. Upon removal from anesthetic, reversal drug atipamezole (0.2 mg/kg, IM) was administered.
To assess RTX tolerance, adverse event monitoring was performed using the following parameters: measurement of vital signs during anesthesia; physical examinations performed 0.25, 0.5, 1, 2, 3 and 4 hours following recovery from anesthesia (i.e. removal of endotracheal tube) as well as 1, 3 and 7 days post-dose in both the morning (AM) and afternoon (PM); twice daily clinical observations; daily food consumption measurement.

TRPV1 receptor = TRPV1 receptor (Homo sapiens, UniProt Q8NER1); conditions: cited from earlier work
TRPV1 receptor, sequence (Q8NER1 whole entry): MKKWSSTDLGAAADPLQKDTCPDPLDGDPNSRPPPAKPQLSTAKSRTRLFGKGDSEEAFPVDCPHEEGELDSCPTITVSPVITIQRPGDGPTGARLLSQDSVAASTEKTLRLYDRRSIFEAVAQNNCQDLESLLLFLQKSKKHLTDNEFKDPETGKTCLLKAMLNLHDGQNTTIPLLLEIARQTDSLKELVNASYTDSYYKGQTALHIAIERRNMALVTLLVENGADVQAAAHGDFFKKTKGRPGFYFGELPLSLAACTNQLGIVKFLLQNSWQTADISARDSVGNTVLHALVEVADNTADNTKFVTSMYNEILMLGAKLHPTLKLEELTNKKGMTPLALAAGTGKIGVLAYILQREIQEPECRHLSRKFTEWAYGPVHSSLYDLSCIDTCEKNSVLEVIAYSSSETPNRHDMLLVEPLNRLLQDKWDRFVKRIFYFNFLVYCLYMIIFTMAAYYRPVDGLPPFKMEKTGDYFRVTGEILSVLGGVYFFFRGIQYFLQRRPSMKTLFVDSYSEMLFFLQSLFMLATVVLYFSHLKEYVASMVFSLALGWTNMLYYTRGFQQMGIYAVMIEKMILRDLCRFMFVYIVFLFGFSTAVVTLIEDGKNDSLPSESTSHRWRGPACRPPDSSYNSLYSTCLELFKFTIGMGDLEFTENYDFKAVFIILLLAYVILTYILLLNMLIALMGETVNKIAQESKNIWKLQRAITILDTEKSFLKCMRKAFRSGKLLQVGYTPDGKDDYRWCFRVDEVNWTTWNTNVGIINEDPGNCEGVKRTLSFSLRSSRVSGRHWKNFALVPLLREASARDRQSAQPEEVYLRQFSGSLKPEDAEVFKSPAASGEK

[2] = test system: oral pain associated with Feline Chronic Gingivostomatitis (FCGS); experiment: Veterinarian Specific Outcome Measures (VSOM) in client-owned cats after oral topical RTX; assay type: in vivo, cat; conditions: for treatment success rate (VSOM): Day 28 vs Day 0, success = reduction of at least 2 in total VSOM score
From the text: (§1) Characterize the required dose of RTX applied topically to the oral mucosa for the control of pain associated with Feline Chronic Gingivostomatitis (FCGS).
• Cat less than 12 months of age. • Cat's body weight less than 2 kg. • Cat unlikely to survive a 30-min anesthesia or sedation procedure. • Cat was unlikely to survive 4 weeks due to health issues other than oral pain. • Cat was unavailable for the entire study duration or was felt to be unsuitable by the Investigator for another reason. • Cat was participating in another study • Cat was pregnant or lactating. • Cat underwent an oral surgical procedure within 30 days prior to screening. • Cat received cannabinoid agonists such as cannabidiol (CBD) or anandamide within 28 days of starting the study. • Cat received oral corticosteroids within 1 week of starting the study, or injectable corticosteroids within 6 weeks of starting the study, and/or required medication or supplements during the study that may have interfered with the objective of the study.
Twenty-eight cats, each weighing over 2 kg and over 12 months of age, were enrolled in this study. There was no apparent trend in the ages of cats enrolled in the study. Enrolled cats were physically examined (their physical exam findings such as general appearance, ears/eyes/mouth, abdominal/gastrointestinal, musculoskeletal, neurological urogenital, lymphatic etc. . . . were recorded). Their weight and vital signs were recorded as well.
Veterinarian Specific Outcome Measures (VSOM)—Qualitative assessment of common stomatitis signalment was carried out prior to the beginning of treatment and on day 7, 14, and 28 (at the conclusion of treatment). Cats were assessed for drooling, pain while eating, pain at manipulation and swelling of the oral tissue. Each clinical sign was graded from 1 to 5 (1=no problem; 5=Impossible).
Treatment success was defined as “a reduction of at least 2 in total VSOM score at Day 28 compared to VSOM score at Day 0. A decrease of less than 2, no change, or an increase in total score was defined as treatment failure. Cats presenting an increase in any individual VSOM were considered a treatment failure regardless of total VSOM score. […] The results of each cohort were not compared statistically; only descriptive statistics were generated due to the small number of cats per cohort and lack of randomization. However, there was no evidence of a relationship between treatment success and dose.
(§2) Each animal was randomly assigned to one of three groups. Ten cats (group 1) were treated with 6.25 μg RTX (total) diluted with sterile saline for a total volume of 2 mL. Nine cats (group 2) were treated with 12.5 μg RTX (total) diluted with sterile saline for a total volume of 2 mL. Nine cats (group 3) were treated with 25 μg RTX (total) diluted with sterile saline for a total volume of 2 mL.
RTX solution was applied using a clean cotton tip applicator directly to the visible lesions and adjacent tissue. The non-target dosing areas (caudal mouth/pharynx) were protected using a 4×4 gauze. Any targeted area was dried with sterile gauze or using the air-water syringe system. The saturated applicator for was gently pressed along the targeted areas for 10 seconds. Two to three coats per lesion were applied using the same cotton tip applicator. The area was allowed to dry for a few seconds before moving to the next lesion by exposing the area to the air or by gently using the air-water syringe system. […]

[3] = Safety variables of the FCGS effectiveness study (mortality, adverse events, clinical observations, body weight, ability to eat); assay type: in vivo, cat
From the text: Mortality—No mortality, whether by natural death or euthanasia, occurred on this study.
An adverse event (AE) is defined as any undesirable event, expected or not, occurring to a study animal during the study, regardless of whether the event was considered to have a causal relation to a study treatment. Adverse events were reported at scheduled times during the study from Day 0 to the last day of the study. Certain adverse events, defined as serious adverse events, were reported in an expedited fashion to allow for possible study protocol modifications. A Serious Adverse Event (SAE) is defined as any medical occurrence that results in hospitalization longer than 24 hours or results in significant disability or morbidity or is life threatening or results in death.
Severity, causality and outcome of adverse events were recorded. Causality is a determination of whether there was a reasonable possibility that the drug may have caused or contributed to an AE. This relationship was described as “unlikely”, “possible”, “probable”, “definite”, or “unknown.”
On Day 0, starting once the RTX was applied to all oral lesions (time 0), clinical observations were carried out by the veterinarian at 10, 30, 45, 60 (±5 minutes), as well as at 2 hours (±10 minutes) and 4 hours (±15 minutes), post-treatment administration. Cats were observed past 4 hours post-treatment administration, as necessary or until resolution of abnormal observations.
Cats were weighed on days 0, 7, 14, and 28. Normal body weights were reported for 24 of the 28 cats. Two cats (one in Cohort 1 and one in Cohort 3) had abnormal (low) weight on day 0, but normal weight by day 28.
Cats' ability to eat was assessed on days 0, 7, 14, and 28. The majority of the cats' ability to eat improved throughout the study. On day 28, no differences in ability to eat were detected between cohorts.

[4] = test system: oral inflammation, Feline Chronic Gingivostomatitis (FCGS); experiment: Stomatitis Disease Activity Index (SDAI) in client-owned cats after oral topical RTX; assay type: in vivo, cat; conditions: for treatment success (SDAI): success = 20% reduction in Day 28 SDAI vs Day 0 (post-hoc)
Method: as §1
Stomatitis Disease Activity Index (SDAI)—This semi-quantitative assessment of oral inflammation was carried out prior to the beginning of treatment (day 0) and at day 28 (at the conclusion of treatment). Cats were assessed by owner for cat's interest in food and ability to eat, perceived comfort, grooming behavior, and activity levels. Each assessment was graded from 0 to 3 (0=no problem; 3=severe problems).
The average of the scores in Table 1 (total score divided by 4) were entered in the “owner evaluation” box on the initial SDAI (Stomatitis Disease Activity Index) tabulation sheet of Table 2. The rest of the questions on SDAI survey were completed by the veterinarian prior to the beginning of treatment (day 0) and at day 28 (at the conclusion of treatment). Each assessment was graded from 0 to 3 (0=no problem; 3=severe problems) as follows:
Treatment success using the SDAI metric was defined post-hoc as a 20% reduction in the Day 28 SDAI compared to Day 0. Based on this definition, the percentage success was 100.0%, 80.0% and 44.4% for Cohorts 1, 2, and 3 respectively. The discrepancy in the success rate of Cohort 3 using the two metrics may be due to a higher baseline SDAI score.
as §2
RTX solution was applied using a clean cotton tip applicator directly to the visible lesions and adjacent tissue. The non-target dosing areas (caudal mouth/pharynx) were protected using a 4×4 gauze. Any targeted area was dried with sterile gauze or using the air-water syringe system. The saturated applicator for was gently pressed along the targeted areas for 10 seconds. Two to three coats per lesion were applied using the same cotton tip applicator. The area was allowed to dry for a few seconds before moving to the next lesion by exposing the area to the air or by gently using the air-water syringe system. When possible, and in absence of active bleeding due to manipulation, the RTX solution was allowed to drip into the gingival sulcus. If a target area was actively bleeding, an attempt to decrease or stop the bleeding was made before the RTX application.

SMILES: C=C(C)[C@]12C[C@@H](C)[C@@]34O[C@](Cc5ccccc5)(O[C@@H]1[C@@H]3C=C(COC(=O)Cc1ccc(O)c(OC)c1)C[C@]1(O)C(=O)C(C)=C[C@@H]41)O2 [RTX, resiniferatoxin]
- time to resolution of mild increases in severity of gingivitis ([1]; 2 cats, without intervention): ≤ 3 days post-dose
- food consumption ([1]; 8 days following RTX administration): returned to normal by day seven
- body weight ([1]; day 8 vs before administration): by day 8 the weight was back to normal
- tolerability ([1]; single topical oral application 17.5-25 μg RTX (12.5 μg/mL), 4 cats, followed 8 days): well tolerated with only mild and transient adverse events
- potency relative to capsaicin (TRPV1 receptor; TRPV1 receptor agonist): 1000-10,000 times
- Scoville scale (TRPV1 receptor): 16 billion
- control of pain and inflammation ([2]; 6.25 μg RTX, 28 days): effective in controlling pain and inflammation for 28 days
- treatment success rate (VSOM) ([2]; Cohort 1, 6.25 μg RTX topical oral): 90.0%
- treatment success rate (VSOM) ([2]; Cohort 2, 12.5 μg RTX topical oral): 80.0%
- treatment success (VSOM) on Day 14 ([2]; Cohort 2, 12.5 μg RTX, Day 14): all cats in Cohort 2 were a success
- treatment success rate (VSOM) ([2]; Cohort 3, 25 μg RTX topical oral): 88.9%
- severity of adverse events ([3]; 6.25-25 μg RTX topical oral): Most of the AE were graded as mild
- serious adverse events (SAE) during in-life ([3]; 28 cats, 6.25-25 μg RTX topical oral): One
- mortality ([3]; 28 cats, 6.25-25 μg RTX topical oral, 28 days): No mortality
- signs of systemic RTX exposure ([3]; application on inflamed oral mucosa): did not exhibit signs of systemic RTX exposure
- ability to eat ([3]; assessed days 0, 7, 14, 28, all cohorts): most of the cats in all cohorts that completed the study had an improvement in the ability to eat
- cats with normal body weights ([3]; weighed days 0, 7, 14, 28): 24 of the 28
- time to resolution of clinical signs (panting, hypersalivation, tachycardia, restlessness) post-treatment ([3]; without medical intervention): ≤ 3 h
- treatment success (SDAI) ([4]; Cohort 1, 6.25 μg RTX): 100.0%
- treatment success (SDAI) ([4]; Cohort 2, 12.5 μg RTX): 80.0%
- treatment success (SDAI) ([4]; Cohort 3, 25 μg RTX): 44.4%
- percent improvement in SDAI ([4]; day 0 to day 28): about 60%
